Source: PMC5626944 (Frontiers in Pharmacology, 2017)

How the values were obtained:
[1] = molecular target: T1, Low-sensitivity α4(3)β2(2) nAChRs (Mus musculus, UniProt O70174+Q9ERK7); assay: 86Rb+ efflux from thalamic and cortical synaptosomes, DhβE-insensitive component; type: biochemical
T1 construct: from tissue; host or cells: WT mouse thalamic and cortical synaptosomes
Method: Regions of interest were dissected from fresh mouse brains and homogenized in ice-cold isotonic sucrose (0.32 M), buffered with HEPES (5 mM, pH 7.5). The suspension was centrifuged at 12,000 × g for 20 min.

[2] = In vitro metabolism in microsomes; type: in vitro ADME; settings: rat microsomes
CYP1A2 = assay: Turnover by recombinantly expressed human cytochrome P450 isoforms; type: in vitro ADME; settings: 100 pmol/mL enzyme, 37 °C
Method: (§1) S2 Table. In vitro metabolism of TC299423, compared w ith varenicline.
(§2) Human Rat microsomes Turnover by human cytochrome P450 isoforms […]
(§3) The assay mixtures (final incubation volume of 125 μL) in 0.255 M phosphate buffer with 0.575% (w/v) KCl (pH 7.4) contained PiB (1.0 μM), […] a recombinantly expressed cytochrome P450 enzyme preparation (1A2, 2C9, 2C19, 2D6, 3A4, and FMO3) at 100 pmol/mL. After a 10 min preincubation at 37 °C, the reaction was initiated by addition of 2.0 mM NADPH and incubated for 60 min. The reactions were terminated by the addition of two volumes of DMSO. Samples were subsequently centrifuged at 4,000 rpm for 10 min. From the resulting supernatant, 10 μ L was analyzed by liquid chromatography/tandem mass spectrometry (LC-MS/MS). Control experiments were performed by substituting the active enzyme preparation by cell preparations containing no recombinant human CYP. a, Data for clearance are given as μL /min/mg protein. […]
(§4) c, Data for cytochrome P450 turnover and for human flavin- containing monooxygenase 3 (FMO3) are given as percent decline over 60 min.

CYP2C19 = assay: as above; type: in vitro ADME; settings: 100 pmol/mL enzyme, 37 °C
Method: as §1, §2, §3, §4

CYP2C9 = assay: as above; type: in vitro ADME; settings: 100 pmol/mL enzyme, 37 °C
Method: as §1, §2, §3, §4

CYP2D6 = assay: as above; type: in vitro ADME; settings: 100 pmol/mL enzyme, 37 °C
Method: as §1, §2, §3, §4

CYP3A4 = assay: as above; type: in vitro ADME; settings: 100 pmol/mL enzyme, 37 °C
Method: as §1, §2, §3, §4

Human FMO3 = assay: Turnover by human flavin-containing monooxygenase 3; type: in vitro ADME; settings: 100 pmol/mL enzyme, 37 °C
Method: as §1, §2, §3, §4

male Wistar rats = assay: Rat responding for food rewards; type: in vivo; settings: 0.01, 0.025, 0.05, 0.08 mg/kg ip, 20 min before session
Source text: Operant chambers (Med Associates, East Fairfield, VT, United States) were used for food delivery and the intravenous self-administration (IVSA) of nicotine.
For IV catheter implantation, the rats were anesthetized using 1–3% isoflurane inhalation in oxygen and surgically prepared with catheters in the left jugular vein ([Kenny et al., 2008]). The catheter was passed subcutaneously to a polyethylene assembly mounted on the animals’ back. Prior to training, rats were food-restricted so that their body weight was approximately ∼85% that of free-feeding rats. They were then trained to press an active lever for 45 mg food pellets on a fixed ratio 5 time-out 20 s (FR5TO20) schedule of reinforcement. […] Pressing this lever was recorded but was not associated with scheduled consequence. Rats were permitted to respond for food rewards until a reliable response was achieved, defined as >90 pellets earned per 1 h session for three consecutive sessions. Rats were then permitted to respond for food (n = 8) or for nicotine infusions (n = 9) during 1 h daily sessions under the FR5TO20 schedule. […]
Twenty min after injection, rats were placed in the operant boxes and responding for food rewards or nicotine infusions was recorded. […]

WT mice = assay: Hot plate assay; type: in vivo, mouse; settings: 0.3 mg/kg ip each, 55°C hot plate, p < 0.05
Method: Mice were again habituated to the experimental room for ≥2 h prior to testing. […] This apparatus is a heated metal plate, maintained at 55°C, enclosed by a clear acrylic plastic cylinder (∼10 cm in diameter), within which the mouse is free to move. […] If the mouse urinates during the assay, it is immediately removed from the hot plate. The time that the mouse remains on the hot plate prior to showing signs of discomfort is recorded. Doses were administered using a Latin-square crossover design. A day without testing occurred between each test.

Adenosine, A1 = test system: T2, Adenosine, A1; assay: NovaScreen competition binding; settings: 1 µM
T2 construct: PerkinElmer – Caliper Life Sciences (NovaScreen service)

Adrenergic, Alpha 2A (h) = test system: T3, Adrenergic, Alpha 2A (h); assay: NovaScreen competition binding; parameters: species or system human; settings: 1 µM
T3 construct: PerkinElmer – Caliper Life Sciences (NovaScreen service)

Dopamine, D4.4 (h) = assay: NovaScreen competition binding; parameters: species or system human; settings: 1 µM
[3] = test system: Glutamate, MK-801 Site (Ionotropic); assay: NovaScreen competition binding; settings: 1 µM
Opioid, Mu (h) = assay: NovaScreen competition binding; parameters: species or system human; settings: 1 µM
Serotonin, 5HT2C = assay: NovaScreen competition binding; settings: 1 µM
Sodium, Site 2 = assay: NovaScreen competition binding; settings: 1 µM
[4] = test system: T4, Kinase, Protein, PKCa (h); assay: NovaScreen enzyme assay; type: biochemical, human; settings: 1 µM
T4 construct: PerkinElmer – Caliper Life Sciences (NovaScreen service)

α4β2* nAChRs = α4β2* nAChRs (Mus musculus, UniProt O70174+Q9ERK7); assay: [125I]epibatidine binding, cortical membranes; parameters: from tissue; host or cells: cortical brain membranes (mouse)
Method: Brain membrane preparations were stored as pellets under buffer at -70°C or used immediately.

T1 sequence (O70174 31-629): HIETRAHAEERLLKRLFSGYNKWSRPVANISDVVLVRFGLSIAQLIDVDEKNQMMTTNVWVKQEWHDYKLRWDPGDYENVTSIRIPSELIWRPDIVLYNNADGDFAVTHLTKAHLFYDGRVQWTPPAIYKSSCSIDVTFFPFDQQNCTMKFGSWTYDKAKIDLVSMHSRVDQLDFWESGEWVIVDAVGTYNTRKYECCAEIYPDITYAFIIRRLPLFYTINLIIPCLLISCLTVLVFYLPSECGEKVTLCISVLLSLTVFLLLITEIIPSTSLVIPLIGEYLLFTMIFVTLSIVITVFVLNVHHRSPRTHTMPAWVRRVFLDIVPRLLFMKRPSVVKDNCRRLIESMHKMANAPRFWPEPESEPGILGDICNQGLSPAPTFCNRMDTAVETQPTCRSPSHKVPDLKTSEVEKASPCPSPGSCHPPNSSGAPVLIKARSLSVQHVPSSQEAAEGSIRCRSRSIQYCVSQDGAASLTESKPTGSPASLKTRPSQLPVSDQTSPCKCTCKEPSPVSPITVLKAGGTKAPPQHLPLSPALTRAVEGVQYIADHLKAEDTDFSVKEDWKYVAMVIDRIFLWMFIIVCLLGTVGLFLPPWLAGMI
T1 sequence (Q9ERK7 26-501): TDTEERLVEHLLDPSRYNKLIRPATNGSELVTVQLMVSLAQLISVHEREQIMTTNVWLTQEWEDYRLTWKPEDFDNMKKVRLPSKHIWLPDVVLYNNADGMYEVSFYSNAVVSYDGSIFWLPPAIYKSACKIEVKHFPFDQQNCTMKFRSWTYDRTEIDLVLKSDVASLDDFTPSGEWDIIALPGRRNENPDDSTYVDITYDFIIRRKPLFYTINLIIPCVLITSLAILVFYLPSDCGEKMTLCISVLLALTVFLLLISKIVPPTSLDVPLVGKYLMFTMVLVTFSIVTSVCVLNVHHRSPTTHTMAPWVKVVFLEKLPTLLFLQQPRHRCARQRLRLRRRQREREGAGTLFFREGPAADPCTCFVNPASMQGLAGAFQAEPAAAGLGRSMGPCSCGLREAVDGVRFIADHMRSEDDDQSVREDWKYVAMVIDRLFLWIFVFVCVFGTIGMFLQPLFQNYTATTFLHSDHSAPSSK
Sequence of α4β2* nAChRs (O70174 31-629): as the sequence (O70174 31-629) above
Sequence of α4β2* nAChRs (Q9ERK7 26-501): as the sequence (Q9ERK7 26-501) above

C1=C(/c2cncnc2)CCCNCC/1 [TC299423, (E)-5-(pyrimidin-5-yl)-1,2,3,4,7,8-hexahydroazocine]
86Rb+ efflux Efficacy ([1]; Cortex): 39 ± 4% | EC50 ([1]; Cortex): 26 ± 21 µM | 86Rb+ efflux Efficacy ([1]; Thalamus): 32 ± 10% | EC50 ([1]; Thalamus): 10 ± 10 µM | Half-life compared to varenicline [2]: ~7 fold | half-life [2]: 1.32 h | microsomal CLint ([2]; read-out: Clearance): 18 µL/min/mg | Turnover by CYP1A2 (CYP1A2): 3 percent decline over 60 min | Turnover by CYP2C19 (CYP2C19): 4 percent decline over 60 min | Turnover by CYP2C9 (CYP2C9): 8 percent decline over 60 min | Turnover by CYP2D6 (CYP2D6): 42 percent decline over 60 min | Turnover by CYP3A4 (CYP3A4): 7 percent decline over 60 min | Turnover by Human FMO3 (Human FMO3): 17 percent decline over 60 min | Responding for food pellets vs vehicle (male Wistar rats): no statistically significant changes | Antinociceptive effect compared with varenicline (WT mice): significantly greater than that of varenicline | Hit (Adenosine, A1): FALSE | Inhibition (Adenosine, A1; [3H]CPX): 7.85% | Hit (Adrenergic, Alpha 2A (h)): FALSE | Inhibition (Adrenergic, Alpha 2A (h); [3H]MK-912): 6.75% | Hit (Dopamine, D4.4 (h)): FALSE | Inhibition (Dopamine, D4.4 (h); [3H]-YM-09151-2): -2.44% | Hit [3]: FALSE | Inhibition ([3]; [3H]MK-801): 5.46% | Hit (Opioid, Mu (h)): FALSE | Inhibition (Opioid, Mu (h); [3H]-Diprenorphine): -6.43% | Hit (Serotonin, 5HT2C): FALSE | Inhibition (Serotonin, 5HT2C; [3H]Mesulergine): -2.21% | Hit (Sodium, Site 2): FALSE | Inhibition (Sodium, Site 2; [3H]Batrachotoxin A 20-a-Benzo): 6.91% | Hit [4]: FALSE | Inhibition ([4]; substrate Fluorescein-labeled peptide): -1.00% | Ki (α4β2* nAChRs; single component, cortical membranes): 0.00024 ± 4e-05 µM | Difference between Ki ([125I]epibatidine) and EC50 ([3H]dopamine release) (α4β2* nAChRs; α4β2 nAChRs): ~500 fold
